The values that follow come from patent publication US11273163B2, “Antiviral treatment” (priority 2020, dated 2022).

The test system of data set [1] is RSV Long strain. The format is cell-based, Respiratory Syncytial Virus. To be noted: all 3 settings (preventive, co-administration, therapeutic), 48 h.
In data set [2] the test system is RSV Long strain. The format is cell-based, Respiratory Syncytial Virus. Conditions: 6.4 μM.
Data set [3] relates to SARS-CoV-2. The format is cell-based. Conditions: for cytopathogenic score: Vero E6, MOI 0.1, 48 hours post infection. (Cytopathic effects are the visible damage that an infection or toxin causes in cultured cells.)
In data set [4] the test system is SARS-CoV-2. It counts as cell-based. To be noted: Calu-3, MOI 0.01, 48 h.
The next data set relates to influenza H1N1. The format is cell-based, influenza A virus H1N1. To be noted: hydrochloride.
A further data set relates to HEp-2 cells. Nature of the data set: Cytotoxicity towards HEp-2 cells, flow cytometry with propidium iodide. The format is cell-based. Conditions: non-infected, 48 h. How it is done: Mean and SEM were calculated from 3 independent experiments.
On the technique in general: A flow cytometer gives signals particle by particle.

The next data set relates to SARS-CoV-2 B.1.351. The data set can be described thus: microbe, parasite or virus in culture. Conditions: Severe acute respiratory syndrome coronavirus 2, Vero/TMPRSS2, 48 h, read-out: inhibition of infection (relative to no azelastine treated cells). It counts as cell-based.
Data set [5] relates to reconstituted human nasal tissue (MucilAir). Conditions: without virus infection.
The subject of data set [6] is SARS-CoV-2. Nature of the data set: microbe, parasite or virus in culture. The format is cell-based. Conditions: for reduction of viral particle numbers: up to; for viral particle/μL: 48 h post infection, median.
Another data set relates to SARS-CoV-2 B.1.1.7. The data set can be described thus: microbe, parasite or virus in culture. To be noted: Severe acute respiratory syndrome coronavirus 2, Vero/TMPRSS2, 48 h, B1.1.7, 48 h, read-out: inhibition of infection (relative to no azelastine treated cells). It counts as cell-based.

Several values for one entry are separate records, joined by “and”; a condition that tells them apart may be missing. Equal values may be shown once. Read-outs that look alike come from different tables or passages of the source.

As for `CN1CCCC(n2nc(Cc3ccc(Cl)cc3)c3ccccc3c2=O)CC1.Cl` (stereo not shown) [Azelastine-HCl, 4-[(4-chlorophenyl)methyl]-2-(1-methylazepan-4-yl)phthalazin-1-one; hydrochloride], the “RSV infection of cells by spot count, compared to vehicle (DMSO) treated controls” value in the data set on RSV Long strain [1] (3.2 μM) and with RSV Long strain [1] (6.4 μM) was ~50% throughout. Besides, the “Ct (cycle threshold in PCR reaction)” value turned out to be 27.99 in the data set on RSV Long strain [2] (co-administration, experiment #1); 27.21 in the data set on RSV Long strain [2] (co-administration, experiment #2); 27.5 in the data set on RSV Long strain [2] (preventive, experiment #1); 27.17 in the data set on RSV Long strain [2] (preventive, experiment #2); 27.95 with RSV Long strain [2] (therapeutic, experiment #1); 27.27 with RSV Long strain [2] (therapeutic, experiment #2). The cytopathogenic score in the data set on SARS-CoV-2 [3] (3.125 μM) and with SARS-CoV-2 [3] (6.25 μM) was 2 each time. Moreover, the “reduction of viral particle numbers” value was “over 90%” in the data set with SARS-CoV-2 [4] (25 μM) and > 99% in the data set with SARS-CoV-2 [4] (50 μM, up to). For the same compound, in the data set with influenza H1N1, the “reduction in viral genome copy” value was 98.74% and 87.4%. For the same compound, the “cytotoxicity to HEp-2 cells” value in the data set with HEp-2 cells (12.8 μM) and in the data set on HEp-2 cells (25.6 μM) was “showed cytotoxicity” in each case.

With Maraviroc, the cytopathogenic score is on record as 4 in the data set on SARS-CoV-2 [3] (3.125 μM); 4 with SARS-CoV-2 [3] (6.25 μM); 3 in the data set on SARS-CoV-2 [3] (12.5 μM); 3 in the data set with SARS-CoV-2 [3] (25 μM); 3 with SARS-CoV-2 [3] (50 μM). The protective effect entry in the data set on SARS-CoV-2 [3] (higher concentrations (12.5 to 50 μM)) is given as “only marginal protective effect”; with SARS-CoV-2 [3] (lower concentrations), “not effective at all”.

What is called inhibition is the drop in the measured response relative to a control, in per cent. The term EC50 denotes the concentration that produces a half-maximal response. As for `CN1CCCC(n2nc(Cc3ccc(Cl)cc3)c3ccccc3c2=O)CC1` (stereo not shown) [Azelastine, 4-[(4-chlorophenyl)methyl]-2-(1-methylazepan-4-yl)phthalazin-1-one], the inhibition at 3.125 µM was 32.9% with SARS-CoV-2 B.1.351 (preventive setting), 22% in the data set with SARS-CoV-2 B.1.351 (therapeutic setting), 23.8% in the data set with SARS-CoV-2 B.1.1.7 (preventive setting) and 2.57% with SARS-CoV-2 B.1.1.7 (therapeutic setting). Also, the inhibition at 6.25 µM worked out at 74.9% in the data set on SARS-CoV-2 B.1.351 (preventive setting), 55% in the data set with SARS-CoV-2 B.1.351 (therapeutic setting), 72.8% in the data set on SARS-CoV-2 B.1.1.7 (preventive setting) and 47.4% in the data set with SARS-CoV-2 B.1.1.7 (therapeutic setting). Besides, the inhibition at 12.5 µM with SARS-CoV-2 B.1.351 (preventive setting) was 99.1%; in the data set with SARS-CoV-2 B.1.351 (therapeutic setting) it was 97.6%; in the data set with SARS-CoV-2 B.1.1.7 (preventive setting), 98.8%; in the data set with SARS-CoV-2 B.1.1.7 (therapeutic setting), 91.7%. Further, the “tissue morphology versus control” value in data set [5] is listed as “No difference in tissue morphology”. Besides, the 50% effective concentration (EC50) with SARS-CoV-2 [6] (Severe acute respiratory syndrome coronavirus 2, Vero C1008, wild-type SARS-CoV-2, read-out: EC50 observed for the wild-type virus) is ~6 µM. The “reduction of viral particle numbers” value in the data set on SARS-CoV-2 [6] (co-administration (simulating prevention)) is > 99%; in the data set on SARS-CoV-2 [6] (post-infection administration), > 97%. Moreover, the “viral particle/μL” value turned out to be 98.4 viral particle/μL with SARS-CoV-2 [6] (co-administration, 3.125 μM); 15.45 viral particle/μL with SARS-CoV-2 [6] (co-administration, 6.25 μM); 12.25 viral particle/μL in the data set with SARS-CoV-2 [6] (co-administration, 12.5 μM); 0.2 viral particle/μL with SARS-CoV-2 [6] (co-administration, 25 μM); 138 viral particle/μL in the data set with SARS-CoV-2 [6] (post-infection administration, 3.125 μM); 68.4 viral particle/μL in the data set with SARS-CoV-2 [6] (post-infection administration, 6.25 μM). Also, the “viral particle/μL” value came to 52 viral particle/μL in the data set with SARS-CoV-2 [6] (post-infection administration, 12.5 μM) and 6.865 viral particle/μL in the data set with SARS-CoV-2 [6] (post-infection administration, 25 μM).
